One experiment concerns Th17 responses. Set-up: method as in PMID 19498172. As to conditions: activation of the AAR; cited from earlier work.
The next experiment relates to Th17 cells. Nature of the experiment: Rescue of IL-17 production by NAC pre-treatment. Particulars: NAC 1 µM pre-treatment, 10 µM FGIN-1-27. Format: cell-based, mouse. Here is the method:
Figure 5 FGIN-1-27 induces amino acid starvation response (AAR). (a) MA-plot showing shrunken log2 fold-changes of detected genes between the DMSO and FGIN-1-27 RNA-seq samples, ranked by average normalized count. Red dots indicate differentially expressed genes at adjusted p-value <0.05. (b) Transcript levels for the indicated genes after 24 hours of treatment with DMSO or FGIN-1-27 quantified by qPCR. The error bars represent SD. (c) Western blot analysis for phosphorylated eIF2α and ATF4 24 hours after treatment with DMSO or FGIN-1-27 (5 and 10 µM). Data are representative of 3 independent experiments. (d) Amino acids in Th17 cells measured 72 hours after treatment with FGIN-1-27. The error bars represent SD. (e) ROS was measured using cell permeant reagent 2′,7′ –dichlorofluorescin diacetate (DCFDA) at 24 hours following treatment with FGIN-1-27. Filled grey histogram-DMSO, dotted line-FGIN-1-27 (10 µM) and dashed line indicates FGIN-1-27 (5 µM). (f) Dose response plot showing effect of FGIN-1-27 on intracellular IL-17 after pre-treatment with NAC (1 µM). […]
Increased amino acid synthesis and transport is characteristic of the amino acid starvation response (AAR)[20]. […] Induction of ATF4 can be an indication of oxidative stress and we measured reactive oxygen species (ROS) using the cell permeant reagent 2′,7′ –dichlorofluorescin diacetate (DCFDA).

`O=C(CC1NCCCC1O)Cn1cnc2cc(Br)c(Cl)cc2c1=O` (centres unmarked) [halofuginone]: in the experiment on Th17 responses, the Th17 responses entry is listed as “down-regulate Th17 responses”.
As for `CC(=O)N[C@@H](CS)C(=O)O` [NAC, N-acetyl cysteine], the “rescue of defective IL-17 production” value in the experiment with Th17 cells is reported as 14%.

The record behind these values is publication PMC7048748, “Anxiolytic Drug FGIN-1-27 Ameliorates Autoimmunity by Metabolic Reprogramming of Pathogenic Th17 Cells” (Scientific Reports, 2020).
